According to patent EP1785417A2, “Novel non-psychotropic cannabinoids” (priority 2000, dated 2001):
Where two headings read alike, the source gives them in different places.

Columns and labels:
transient MCAo in rats = test: Transient MCAo evaluated by the staircase test; assay type: in vivo
Method: The materials for this procedure are identical to those from Physiological Example 5, except for the different concentrations of PRS-211,095. The procedural differences are as follows: • Male Sprague Dawley rats, 230-270 gr (Harlan, Israel) were used. The following compounds and their respective concentrations were tested: • Dexanabinol and analogs PRS-211,095 and PRS-211,220 in PEG ethanol cosolvent 50 mg/ml. Dexanabinol, the analogs and their vehicle were diluted in Intralipid® 20% (Pharmacia) prior to drug administration.
The procedure is essentially as described in Montoya et al. (Montoya, Campbell-Hope, Pemberton and Dunnet, J. Neurosci. Meth. 36:219-228, 1991) Animals were kept under mild food deprivation for 3-5 days, receiving 15-gr. food once a day (between 16:00 and 17:00) and free access to water. Animals were trained prior to the test for 3-5 days according to the protocol of Sharkey et. al. (Sharkey, Crawford, Butcher and Martson, Stroke 27:2282-2286, 1996).
In brief, the staircase box contains two rows of seven stairs in each. Two 45 mg food pellets were placed on each step. Animals were placed in the box for 15 minutes sessions. At the end of the session the number of eaten (grasped) and displaced pellets was counted and recorded. Animals were tested twice a day, 4 hours apart. The first session was performed between 8-9 AM and second between 12-13 PM. The animals were trained until they grasped (ate) at least 8 pellets from each set of stairs for two consecutive sessions. Up to one week after the end of the successful training session the animals underwent transient MCAo. Transient MCAo was performed in essentially the same manner as described in Physiological example 5 with the following modification at step i: • Two minutes prior to thread removal rats were re-anesthetized and administered IV with Dexanabinol 5mg/kg, analogs PRS-211,220 or PRS-211,095 at 0.5, 2.5, 5 or 10 mg/kg or vehicle 5 ml/kg. One additional group was sham-treated.
(§1) Animals were allowed to recover from the surgery for five days. The mild food deprivation was re-employed during the days following the ischemic insult. They were tested in the staircase box using the above method for 9-12 days. Animals were weighed twice a week during this period.
At the end of the evaluation period, animals were euthanized with pentobarbitone 100 mg/kg IP. The animals were perfused through the heart with heparinized 4% formaldehyde solution in PBS (pH 7.4). Brains were then removed, and kept in the same solution for at least 24h. Then the brains - from the rostral side of the cortex to the cerebellum- were sunk in 30% sucrose in PBS, cryosectioned (20 µm), dried and stained with thionin for histological evaluation of the brain infarct volume. Eight sections at the levels of: 3.3;+2.8;+1.8; +0.8; -0.4;-1.4; -2.2; and -3.4 from Bregma were measured (Swanson, Rat Brain Atlas, 1992). Sections were captured by a CCD camera (V-tech MP-470) and image analyzed (Scion image 1.62A). Infarct size was determined from the series of the 8 sections by either calculation of the infarct volume (mm3) by summing the series of mean lesion areas of two adjacent sections multiplied by the distance between them or calculation of the mean infarct size as percentage of the contralateral hemisphere size; calculation of the mean of the surviving ipsilateral side as percentage of the contralateral hemisphere size; calculation of the mean ipsilateral side ventricle as percentage of the contralateral hemisphere ventricle.
• a. The infarct size was compared using ANOVA (analysis of variance) followed by Duncan's post hoc test. • b. […]

[1] = test system: Nitric Oxide Synthase (NOS); test: Inhibition of nitric oxide synthase (nitrite fluorimetric assay, LPS-stimulated macrophage cultures); assay type: cell-based; details: LPS-stimulated macrophages
Excerpt: (§2) Evaluation of the therapeutic effects of the novel PRS-211 compounds has now been carried out in a series of experimental systems to support the utility of these drugs as neuroprotectants, anti-inflammatory agents and anti-oxidative agents. These effects have been evaluated both in vitro and in vivo, and have been corroborated utilizing the following systems: • (a) Binding to the NMDA receptor linked channel: Non competitive antagonists of NMDA, the primary example of which is the compound MK-801, bind to a site within the NMDA receptor channel thus preventing the activation of the receptor-channel complex and the consequent neurotoxicity. The ability of various compounds to compete with the binding of tritium labeled MK-801 to brain membranes is considered a measure of their potency as NMDA non-competitive antagonists. • (b) Inhibition of prostaglandin production: The inhibitory effect of the new derivatives of Dexanabinol on prostaglandin synthesis is evaluated in macrophage cell cultures following LPS exposure to induce the inflammatory response. These assays are an indication of the anti-inflammatory activity of the individual analogs. • (c) Inhibition of Tumor Necrosis Factor Alpha: Specific aspects of the inflammatory response cascade are mediated by the cytokine TNFα. Inhibition of TNFα production and/or inhibition of TNFα release by the new analogs are assayed in macrophage cell cultures activated with LPS. This serves as another indication of the general anti-inflammatory potential of the novel compounds. • (d) Nitric Oxide Assay: As one aspect of the anti-oxidative potential of the novel analogs they were tested for their ability to inhibit the enzyme nitric oxide synthase (NOS). This assay can also serve as another indication of the anti-inflammatory cascade, as well as the anti-oxidative mechanisms. • (e) Ear Edema model: The anti-inflammatory activity of the new analogs is screened using an ear edema model in mice. This test system utilizes Croton oil or Arachidonic acid as inflammation inducers. The ability of the test compounds to prevent or diminish the inflammatory response to these stimulants is indicative of their systemic anti-inflammatory capability. • (f) Improved clinical outcome after closed head injury in rats: Severe head injury is associated with high mortality and severe neurological impairment. Animals subjected to head trauma in a controlled fashion serve as models in which to test drugs of therapeutic potential. Test compounds can be evaluated both for improved clinical outcome and for reduction of edema induced by closed head injury. The ability of compounds to reduce the severity of neurological symptoms and to reduce brain edema is considered a measure of their potency in reducing brain damage. • (g) Transient Middle cerebral artery occlusion (MCAo): The middle cerebral artery is the cerebral blood vessel most susceptible to stroke in humans. In animals, coagulation, permanent ligation or permanent placement of an occluding thread in the artery produces a permanent focal stroke affecting the MCA territory. Transient ligation or occlusion results in transient focal stroke. Both transient and permanent focal strokes result in varying degrees of edema and infarction in the affected brain regions. The ability of compounds to reduce the volumes of edema and infarction is considered a measure of their potential as anti-stroke treatment. • (h) Optic Nerve Crush: Application of mechanical pressure to the rat optical nerve results in crush injury of the axons, which is accompanied by immediate changes in oxidative metabolism and delayed axonal death and blindness. […]

PGE2 = test: Inhibition of prostaglandin synthesis (PGE2) in LPS-stimulated macrophage cell cultures; assay type: cell-based; details: LPS-stimulated macrophages
Excerpt: as §2

ear edema model in mice = test: Ear edema model; assay type: in vivo; details: Mus musculus, Croton oil (CO) as inducer, IP
Excerpt: as §2

[2] = Body weight gain during staircase testing after transient MCAo; assay type: in vivo, rats; details: compared to base line
Method: as §1
Animals were kept under mild food deprivation during the staircase testing (except during weekends). Under these conditions, the following results were observed: • Sham and PRS-211,095 10 mg/kg treated rats gained the maximal body weight (15 and 17% respectively compared to base line). […] These differences were not statistically different.

NMDA receptor = test: Radioligand binding: displacement of [3H]MK-801 from rat forebrain membranes; details: for NMDA receptor binding / affinity: MK-801 binding to membranes
Excerpt: as §2

TNFα = test: Inhibition of TNFα in LPS-stimulated macrophage cell cultures (ELISA); assay type: cell-based; details: LPS-stimulated macrophages
Excerpt: as §2

[3] = test system: transient middle cerebral artery occlusion in rats; test: Transient middle cerebral artery occlusion (MCAo), infarct size evaluation; assay type: in vivo
Excerpt: Experimental design. The design was a randomized one, performed in a masked fashion as to whether drug or vehicle was being given, and an attempt was made to generate approximately equal numbers of drug- and vehicle-treated animals.
• a. Male rats (8 /treatment group) 320-380 gr. (Harlan Israel). • b. Halothane (Rhone Poulenc France) • c. Pentobarbitone (Pental Veterinary, CTS Israel). • d. Poly - L - Lysine (Sigma, USA). • e. Silk suture material 3-0 and 4-0. • f. Nylon (Polyamid) suture material 3-0. Four cm pieces were cut and positioned in a solution of 1% Poly - L - Lysine for 1 minute and dried in an oven (60 ° C) for 60 minutes. The tip of each piece was rounded under a flame. • g. Saline (Teva Medical). • h. Blank cremophor ethanol cosolvent (Pharmos). • i. Dexanabinol in cremophor ethanol cosolvent 50 mg/ml. (Both Dexanabinol and its vehicle were diluted in saline prior to drug administration. • j. Analogs PRS-211,092, PRS-211,095, PRS-211,128 PRS-211,132 and PRS-211,220 in cremophor ethanol cosolvent, 50 mg/ml. • k. The analogs were diluted in saline prior to drug administration.
• a. Surgical details of the MCAo method used for testing dexanabinol analogs, are presented in Belayev, et al., (Belayev, Busto, Weizhao, and Ginsberg, Stroke 26:2313-2319, 1995) which is incorporated herein in its entirety by reference. • b. Two hours after the start of MCAO, the animals were reanesthetized with halothane, the neck wound was re-opened and the nylon thread pulled out of the Internal carotid artery (ICA). The skin wound was then closed with 3-0 silk suture material and the animals allowed to recover from the anesthesia. • c. Three sets of animals were tested. In the first test immediately (2+0 hours) before thread removal the animals were injected IV with either analogs PRS-211,095, PRS-211,128, PRS-211,132, or Dexanabinol (PRS-211,007) each at a dosage of 5 mg/kg. One group of animals was treated with 5ml/kg vehicle alone. In another group, the animals subjected to "sham" operation, the suture was passed into the ICA, as described above, but immediately withdrawn. In the second set dexanabinol, PRS-211,092, PRS-211,095 and PRS-211,220 were used, at 2+0 hours. In the third set dexanabinol, PRS-211,092, PRS-211,095 and PRS-211,220 were administered 1 hour after thread removal (2+1 hours). Laser Doppler Flow (LDF) determined the success of MCAo - a drop of more then 50% in cerebral blood flow was considered as a sign of successful MCAo. Although LDF was a helpful corroborative sign, clinical outcome remained the final inclusion/exclusion criterion, since, with the exception of the PRS-211,220 staircase study, LDF was introduced only after initiation of the study.
A detailed investigation of neurological performance was carried out on the first, third and the 7th day after the MCAo. Two parameters were examined: posture and the flexion reflex (based on Nokon and Chuang, NeuroReport 9, 1998: 2081-2084). Animals were scored according to their performance:
One week after the ischemic insult, animals were euthanized with pentobarbitone 100 mg/kg IP. The animals were perfused through the heart with heparinized 4% formaldehyde solution in PBS (pH 7.4). Brains were then removed, and kept in the same solution before preparation for histological evaluation of the brain infarct volume.

[4] = [3H]MK-801 binding, text to Figure 2, read-out: mean IC50
[5] = displacement of [3H]MK-801, rat forebrain membranes, read-out: NMDA BINDING IC50

CCCCCCC(C)(C)c1cc(O)c2c(c1)OC(C)(C)[C@H]1CC=C(Cn3cccn3)C[C@H]21 [211,220-000, (+)-(3S,4S)-6,6-Dimethyl-(1,1-dimethylheptyl)-1-hydroxy-9-(pyrazolomethyl)-6a,7,10,10a-tetrahydro-6H-dibenzo[b,d]pyran]
pellet consumption, improvement over vehicle (transient MCAo in rats; 0.1 mg/kg, contralateral): 20-30%
pellet consumption, improvement relative to vehicle alone (transient MCAo in rats; 0.5 mg/kg, contralateral, p<0.05): > 60%
potency relative to PRS-211,095 and dexanabinol (transient MCAo in rats; 0.5 mg/kg, session 3 of the staircase): at least 10 times
pellet consumption, improvement over vehicle (transient MCAo in rats; 2.5 mg/kg, contralateral): 20-30%
pellet consumption, improvement over vehicle (transient MCAo in rats; 5.0 mg/kg, contralateral): 20-30%
Mortality Rate(%) (transient MCAo in rats; Table 5, 0.1 mg/kg IV): 25%
No. Dead Animals (transient MCAo in rats; Table 5, 0.1 mg/kg IV): 4
Mortality Rate(%) (transient MCAo in rats; Table 5, 0.5 mg/kg IV): 18.75%
No. Dead Animals (transient MCAo in rats; Table 5, 0.5 mg/kg IV): 3
Mortality Rate(%) (transient MCAo in rats; Table 5, 2.5 mg/kg IV): 30.7%
No. Dead Animals (transient MCAo in rats; Table 5, 2.5 mg/kg IV): 4
Mortality Rate(%) (transient MCAo in rats; Table 5, 5 mg/kg IV): 14%
No. Dead Animals (transient MCAo in rats; Table 5, 5 mg/kg IV): 2
inhibition at 10 µM [1]: 11%
inhibition at 10 µM (PGE2): 47%
ED50 (ear edema model in mice): 57 µmol/kg
body weight gain ([2]; 0.1 mg/kg): 3%
body weight gain ([2]; 0.5 mg/kg): 10%
body weight gain ([2]; 2.5 mg/kg): 5%
body weight gain ([2]; 5 mg/kg): 4%
NMDA receptor binding / affinity (NMDA receptor): relatively high affinity
IC50 (NMDA receptor; [4]): 0.35 µM
IC50 (NMDA receptor; [5]): 0.35 µM
inhibition at 10 µM (TNFα): 11%

CCCCCCC(C)(C)c1cc(O)c2c(c1)OC(C)(C)[C@H]1CC=C(CN3CCCC3)C[C@H]21 (stereo in doubt) [211,128-000]
inhibition at 10 µM [1]: 27%
inhibition at 10 µM (PGE2): 84%
ED50 (ear edema model in mice): 23 µmol/kg
NMDA receptor binding / affinity (NMDA receptor): no detectable affinity
IC50 (NMDA receptor; [4]): > 20 µM
IC50 (NMDA receptor; [5]): > 20 µM
inhibition at 10 µM (TNFα): 48%
function, reduction of mortality and brain morphometry [3]: inactive
Mortality rate ([3]; 5 mg/kg IV at 2+0 hours): around 25%

CCCCCCC(C)(C)c1cc(O)c2c(c1)OC(C)(C)[C@H]1CC=C(CN3CCN=C3SC)C[C@H]21 [211,204-000]
inhibition at 10 µM [1]: 85%
inhibition at 10 µM (PGE2): 83%
ED50 (ear edema model in mice): 34 µmol/kg
IC50 (NMDA receptor; [5]): 10 µM
inhibition at 10 µM (TNFα): 28%
reduction of infarct size ([3]; IV, one week after the ischemic insult): 50%
